# Experimental data reported in PubChem BioAssay AID1918941 (Molecular Pharmacology Branch, DTP, NCI, 2023).
# System: SW 1271 complex spheroids, viability
# Test: Anticancer human tumor SW 1271 cell line growth inhibition [LSD1];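 note: spheroids exposed to agents for 7 days before luminescence read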;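 for viability, T/C: 100% = DMSO vehicle control viability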
# Details: for IC50: curve of first compound; for viability, T/C: stronger effect = lower value
# How it was run: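 Multicellular complex spheroids of tumor cells with human endothelial cells (HUVEC) and mesenchymal stem cells; the LSD1 inhibitor iadademstat was combined with standard-of-care or investigational agents. Top concentration at or near clinical Cmax, half-log dilutions; final DMSO ≤0.25%.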
# [1] = second compound 0.1 µM, first compound 0.0316 µM
# [2] = second compound 0.1 µM, first compound 0.1 µM
# [3] = second compound 0.1 µM, first compound 0.316 µM
# [4] = second compound 0.1 µM, first compound 1 µM
# [5] = second compound 0.1 µM, first compound 3.16 µM
# [6] = second compound 0.1 µM, first compound 10 µM
# [7] = second compound 0.316 µM, first compound 0.0316 µM
# [8] = second compound 0.316 µM, first compound 0.1 µM
# [9] = second compound 0.316 µM, first compound 0.316 µM
# [10] = second compound 0.316 µM, first compound 1 µM
# [11] = second compound 0.316 µM, first compound 3.16 µM
# [12] = second compound 0.316 µM, first compound 10 µM
# [13] = second compound 1 µM, first compound 0.0316 µM
# [14] = second compound 1 µM, first compound 0.1 µM
# [15] = second compound 1 µM, first compound 0.316 µM
# [16] = second compound 1 µM, first compound 1 µM
# [17] = second compound 1 µM, first compound 3.16 µM
# [18] = second compound 1 µM, first compound 10 µM
# [19] = second compound 3.16 µM, first compound 0.0316 µM
# [20] = second compound 3.16 µM, first compound 0.1 µM
# [21] = second compound 3.16 µM, first compound 0.316 µM
# [22] = second compound 3.16 µM, first compound 1 µM
# [23] = second compound 3.16 µM, first compound 3.16 µM
# [24] = second compound 3.16 µM, first compound 10 µM
# [25] = second compound 10 µM, first compound 0.0316 µM
# [26] = second compound 10 µM, first compound 0.1 µM
# [27] = second compound 10 µM, first compound 0.316 µM
# [28] = second compound 10 µM, first compound 1 µM
# [29] = second compound 10 µM, first compound 3.16 µM
# [30] = second compound 10 µM, first compound 10 µM
structure (smiles),measurement,setting,value
CC(C)c1c(-c2ccccc2)nc2c(C#N)c[nH]n2c1=O + NC1CCC(NC2CC2c2ccccc2)CC1,IC50,second compound 0.1 µM,> 10 µM
same,IC50,second compound 0.316 µM,> 10 µM
same,IC50,second compound 1 µM,> 10 µM
same,IC50,second compound 3.16 µM,> 10 µM
same,IC50,second compound 10 µM,> 10 µM
same,"viability, T/C",[1],85.7%
same,"viability, T/C",[2],80.3%
same,"viability, T/C",[3],79.1%
same,"viability, T/C",[4],82.8%
same,"viability, T/C",[5],71.1%
same,"viability, T/C",[6],69.4%
same,"viability, T/C",[7],75.2%
same,"viability, T/C",[8],89.2%
same,"viability, T/C",[9],77.9%
same,"viability, T/C",[10],74.2%
same,"viability, T/C",[11],68.9%
same,"viability, T/C",[12],54.7%
same,"viability, T/C",[13],74.1%
same,"viability, T/C",[14],74.8%
same,"viability, T/C",[15],75.5%
same,"viability, T/C",[16],80.1%
same,"viability, T/C",[17],68.8%
same,"viability, T/C",[18],59.4%
same,"viability, T/C",[19],76.6%
same,"viability, T/C",[20],73.1%
same,"viability, T/C",[21],71.5%
same,"viability, T/C",[22],68.8%
same,"viability, T/C",[23],71.9%
same,"viability, T/C",[24],64.2%
same,"viability, T/C",[25],66.7%
same,"viability, T/C",[26],60.5%
same,"viability, T/C",[27],70.1%
same,"viability, T/C",[28],65.5%
same,"viability, T/C",[29],65.8%
same,"viability, T/C",[30],46.5%
CC1COCCN1c1cc(-c2ccnn2C)c2ccnc(-c3ccn[nH]3)c2n1 (stereo not given) + NC1CCC(NC2CC2c2ccccc2)CC1,IC50,second compound 0.1 µM,0.0595 µM
same,IC50,second compound 0.316 µM,0.103 µM
same,IC50,second compound 1 µM,0.0553 µM
same,IC50,second compound 3.16 µM,0.0554 µM
same,IC50,second compound 10 µM,0.0473 µM
same,"viability, T/C","second compound 0.1 µM, first compound 0.00316 µM",59.3%
same,"viability, T/C","second compound 0.1 µM, first compound 0.01 µM",76.7%
same,"viability, T/C",[1],56.3%
same,"viability, T/C",[2],42.7%
same,"viability, T/C",[3],42.2%
same,"viability, T/C",[4],29.8%
same,"viability, T/C","second compound 0.316 µM, first compound 0.00316 µM",71.4%
same,"viability, T/C","second compound 0.316 µM, first compound 0.01 µM",71.2%
same,"viability, T/C",[7],58.2%
same,"viability, T/C",[8],42.7%
same,"viability, T/C",[9],48.8%
same,"viability, T/C",[10],28.6%
same,"viability, T/C","second compound 1 µM, first compound 0.00316 µM",68.5%
same,"viability, T/C","second compound 1 µM, first compound 0.01 µM",62%
same,"viability, T/C",[13],56.2%
same,"viability, T/C",[14],39.6%
same,"viability, T/C",[15],44.3%
same,"viability, T/C",[16],30.3%
same,"viability, T/C","second compound 3.16 µM, first compound 0.00316 µM",68.4%
same,"viability, T/C","second compound 3.16 µM, first compound 0.01 µM",56.4%
same,"viability, T/C",[19],55.8%
same,"viability, T/C",[20],44.8%
same,"viability, T/C",[21],42%
same,"viability, T/C",[22],31.4%
same,"viability, T/C","second compound 10 µM, first compound 0.00316 µM",78.1%
same,"viability, T/C","second compound 10 µM, first compound 0.01 µM",66.9%
same,"viability, T/C",[25],53.1%
same,"viability, T/C",[26],41.8%
same,"viability, T/C",[27],38.5%
same,"viability, T/C",[28],29.9%
CC1COCCN1c1cc(C2(S(C)(=N)=O)CC2)nc(-c2ccnc3[nH]ccc23)n1 (stereo not given) + NC1CCC(NC2CC2c2ccccc2)CC1,IC50,second compound 0.1 µM,> 10 µM
same,IC50,second compound 0.316 µM,8.63 µM
same,IC50,second compound 1 µM,> 10 µM
same,IC50,second compound 3.16 µM,9.17 µM
same,IC50,second compound 10 µM,3.28 µM
same,"viability, T/C",[1],108%
same,"viability, T/C",[2],103%
same,"viability, T/C",[3],111%
same,"viability, T/C",[4],76.2%
same,"viability, T/C",[5],69.1%
same,"viability, T/C",[6],58.8%
same,"viability, T/C",[7],100%
same,"viability, T/C",[8],95.8%
same,"viability, T/C",[9],99.1%
same,"viability, T/C",[10],81.7%
same,"viability, T/C",[11],59.5%
same,"viability, T/C",[12],48.3%
same,"viability, T/C",[13],94.5%
same,"viability, T/C",[14],101%
same,"viability, T/C",[15],85.1%
same,"viability, T/C",[16],68.2%
same,"viability, T/C",[17],72.3%
same,"viability, T/C",[18],53.7%
same,"viability, T/C",[19],82.9%
same,"viability, T/C",[20],88.7%
same,"viability, T/C",[21],86.7%
same,"viability, T/C",[22],75.9%
same,"viability, T/C",[23],73.4%
same,"viability, T/C",[24],47.9%
same,"viability, T/C",[25],97.4%
same,"viability, T/C",[26],92.3%
same,"viability, T/C",[27],71.1%
same,"viability, T/C",[28],78.4%
same,"viability, T/C",[29],50.9%
same,"viability, T/C",[30],19.4%
